“And” between values parts separate entries of the source, which are not always exact repeats. Identical values can stand only once.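 Each compound was tested at five concentrations against cells in 96-well plates for 48 hours. GI50 is the concentration that inhibits growth by half. TGI is the concentration that stops growth completely.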
How the values were obtained:
Test in all cases: growth of human tumour cells (NCI), 48 h
[1] = system: SF-295 CNS
[2] = system: NCI/ADR-RES ovarian
[3] = system: MOLT-4 leukemia
[4] = system: SK-MEL-2 melanoma
[5] = system: HOP-62 NSCLC
[6] = system: HCT-15 colon
[7] = system: LOX IMVI melanoma
[8] = system: NCI-H226 lung
[9] = system: BT-549 breast
[10] = system: HS 578T breast

Structure (SMILES)	TGI [1] [µM]	TGI [2] [µM]	TGI [3] [µM]	TGI [4] [µM]	TGI [5] [µM]	TGI [6] [µM]	TGI [7]	TGI [8] [µM]	TGI [9] [µM]	TGI [10] [µM]	GI50 [1] [µM]	GI50 [2] [µM]	GI50 [3] [µM]	GI50 [4] [µM]	GI50 [5] [µM]	GI50 [9] [µM]	GI50 [6] [µM]	GI50 [7] [µM]	GI50 [8] [µM]	GI50 [10] [µM]
COc1cc2c(cc1Oc1c(Oc3c(O)c(OC)cc4c3C(CC(C)C)N(C)CC4)c(OC)cc3c1C(CC(C)C)N(C)CC3)C(CC(C)C)N(C)CC2 (stereo not drawn)	5.04	14.1	4.05	3.67	3.76	12.9	5.52 µM	2.5	–	–	–	–	–	–	–	–	–	–	–	–
CC(=O)C(C(C)=O)[C@@H]1OC(C)(C)O[C@@H]1[C@H]1COC(C)(C)O1	> 100	> 100	> 100	> 100	> 100	> 100	> 100 µM	> 100	> 100	> 100	–	–	–	–	–	–	–	–	–	–
Cc1ccc(N=Nc2c(O)ccc3cc(S(=O)(=O)O)ccc23)cc1	> 100	> 100	> 100	> 100	> 100	> 100	> 100 µM and 38.2 µM	> 100	> 100	> 100	–	–	–	–	–	–	–	–	–	–
Cc1cc(OCCOCCC(F)(F)P(=O)(O)O)ccc1CCc1cnc2c(N)nc3cc(CCC(=O)O)ccc3c2c1	> 100	> 100	> 100	> 100	> 100	> 100	> 100 µM	> 100	> 100	> 100	> 100	> 100	> 100	> 100	> 100	> 100	> 100	> 100	> 100	26.6
COC(=O)c1cn(CC(O)CCl)nn1 (stereo not drawn)	–	> 100	> 100	> 100	> 100	> 100	> 100 µM	–	> 100	> 100	–	–	–	–	–	–	–	–	–	–
S=c1nc(N/N=C/c2cccs2)c2cn[nH]c2[nH]1	41.4	81.7	66	> 100	69	64.1	74.6 µM	> 100	> 100	> 100	–	–	–	–	–	–	–	–	–	–
CN1Cc2cc(O)c(O)cc2C(O)C1 (stereo not drawn)	> 100	> 100	> 100	> 100	> 100	–	> 100 µM	> 100	> 100	> 100	–	–	–	–	–	–	–	–	–	–
COC(=O)CNC(=O)CCC(C)[C@H]1CCC2C3C(C[C@H](OC(C)=O)[C@@]21C)[C@@]1(C)CCC2(C[C@H]1C[C@H]3OC(C)=O)OOC1(CC[C@]3(C)C4C[C@H](OC(C)=O)[C@@]5(C)C(CC[C@@H]5C(C)CCC(=O)NCC(=O)OC)C4[C@H](OC(C)=O)C[C@@H]3C1)OO2 (stereo partly drawn)	24.7	> 50	–	1.66	1.52	5.42	–	3.46	> 50	2.37	–	–	–	–	–	–	–	–	–	–
COC1=C(C)C(=O)C2=C(C1=O)C1C3CC4=C(C(=O)C(OC)=C(C)C4=O)C(CNC(=O)C(C)O)N3C(C#N)C(C2)N1C (stereo not drawn)	0.753	8.72	< 0.215	< 0.01	< 0.0282	10.5	0.0263 µM	0.109	< 0.01	< 0.01	–	–	–	–	–	–	–	–	–	–
C=CC(C)C1(CCCOCc2ccccc2)C(=S)N2CCC3(CC24CCCC14)OCCO3 (stereo not drawn)	> 100	–	> 100	> 100	–	> 100	> 100 µM	> 100	–	–	–	–	–	–	–	–	–	–	–	–
CN(O)C(=O)CCCC(=O)NCC(C)(C)CNC(=O)CCCC(=O)N(C)O	> 100	> 100	> 100	> 100	> 100	> 100	> 100 µM	> 100	–	> 100	–	–	–	–	–	–	–	–	–	–
Cc1[nH]c2ccccc2c1/C=N/NC(=O)c1cccc(I)c1	43.3	56	60.9	39.2	41	84.5	31.2 µM	–	61.5	89.8	–	–	–	–	–	–	–	–	–	–
COC(=O)[C@]1(c2ccc(N(C)C)cc2OC)C[C@@H]2CCCN(CCc3c1[nH]c1ccccc31)C2	> 60.7	35.8	> 91.4	36.2	> 84.9	46.6	> 62.3 µM	37.6	–	–	–	–	–	–	–	–	–	–	–	–
O=P(Nc1ccccc1)(Oc1ccccc1)N(CCCl)CCCl (stereo not drawn)	> 100	–	> 100	> 100	> 100	> 100	–	> 100	–	–	–	–	–	–	–	–	–	–	–	–
O=C(c1cccnc1)N1N=C(c2ccccc2)CC1(O)c1cc(F)c(Cl)cc1Cl (stereo not drawn)	36.9	83.7	> 100	45.8	39.1	93.4	30 µM	36.3	43.1	79.5	–	–	–	–	–	–	–	–	–	–
CCCOP(=O)(OCCC)OC(C(F)(F)F)C(F)(F)F	–	–	> 100	> 100	> 100	> 100	> 100 µM	> 100	> 100	> 100	–	–	–	–	–	–	–	–	–	–
O=C(Nc1ccccc1Cl)c1ccc([N+](=O)[O-])cc1	> 100	–	> 100	> 100	> 100	> 100	> 100 µM	> 100	–	–	–	–	–	–	–	–	–	–	–	–
O=C(O)/C(=C\c1ccc(O)cc1)c1cccc2ccccc12	> 100	> 100	> 100	> 100	> 100	> 100	> 100 µM	> 100	> 100	> 100	–	–	–	–	–	–	–	–	–	–
COc1ccc(-c2ncn(C[Si](C)(C)C)c2-c2ccc(OC)cc2)cc1	18.3	29.1	4.22	20.5	30.7	18.3	21 µM	24.5	72.3	37.1	–	–	–	–	–	–	–	–	–	–
CC(C)C(=O)/C=C/S/C=C/C(=O)C(C)C	> 100	9.63	–	> 100	86.9	12.2	11.1 µM	29.2	–	95.7	–	–	–	–	–	–	–	–	–	–
COc1ccc(NC(C(N)=O)c2cc3cc(Br)ccc3nc2Cl)cc1 (stereo not drawn)	> 100	> 100	62.9	> 100	> 100	> 100	> 100 µM	> 100	> 100	> 100	–	–	–	–	–	–	–	–	–	–
CCCCCCCCCCCCCC[n+]1ccc(C(N)=O)cc1	5.06	50.2	> 100	–	3.45	49.6	–	4.01	–	7.05	1.76	19	2.54	–	1.51	–	7.19	–	1.52	2.01
